Measured values reported in US20260355196A1, “INHIBITORS AND DEGRADERS OF PIP4K PROTEIN” (Larkspur Biosciences, Inc., priority 2023, published 2026).

biological target: T1, PIP4K2C (Homo sapiens, UniProt Q8TBX8); experiment: HiBiT PIP4K2C degradation assay in MOLT-4 cells (endogenous PIP4K2C C-terminally tagged with HiBiT); type: cell-based; set-up: untagged in primary human PBMCs and monocyte-derived dendritic cells; conditions: 24 hours incubation, MOLT-4, top concentration 10 micromolar; read-out: HiBIT-degradation MOLT4 PIP4k2C 24 hours DC50
T1 sequence (Q8TBX8 1-421): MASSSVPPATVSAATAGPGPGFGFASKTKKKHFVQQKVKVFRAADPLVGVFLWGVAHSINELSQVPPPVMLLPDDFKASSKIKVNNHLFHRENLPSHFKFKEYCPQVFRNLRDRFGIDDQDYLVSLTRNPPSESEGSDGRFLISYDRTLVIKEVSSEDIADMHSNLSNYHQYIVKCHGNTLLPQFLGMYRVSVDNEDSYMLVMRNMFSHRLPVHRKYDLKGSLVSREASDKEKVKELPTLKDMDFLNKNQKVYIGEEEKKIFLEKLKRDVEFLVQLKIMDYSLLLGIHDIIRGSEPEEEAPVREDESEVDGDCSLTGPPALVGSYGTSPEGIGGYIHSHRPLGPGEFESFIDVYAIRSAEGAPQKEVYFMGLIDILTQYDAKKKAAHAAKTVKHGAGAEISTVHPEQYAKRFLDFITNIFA
From the text: Example B-2: HiBiT PIP4K2C degradation assay
Materials: MOLT-4, a human T lymphoblast cell line (see https://www.atcc.org/products/crl-1582, herein incorporated by reference in its entirety), was genetically engineered using CRISPR-Cas9 by Synthego Corporation (Redwood City, CA) to C-terminally tag endogenous PIP4K2C with HiBiT peptide. Following clonal selection, genotype was confirmed by Sanger sequencing. MO LT-4 were maintained using RPMI-1640 medium from Gibco (Grand Island, NY, catalog number 11875-085) supplemented with 10% fetal bovine serum (FBS) from VWR (Philadelphia, PA, catalog number 97068-085). For HiBiT assays the cells were resuspended in RPMI-1640 medium without phenol read from Gibco (Grand Island, NY, catalog number 11835-030) supplemented with 10% FBS. Nano-Glo® HiBiT Lytic Assay System was purchased from Promega (Madison, WI, Catalog number N3030). Cell culture flasks and 384-well microplates were purchased from Corning (Glendale, AZ).
To study PIP4K2C degradation, 384-well plates were plated with a 10-point dose response curve, 3-fold dilution, in duplicate with a top starting concentration of 10 micromolar. Subsequently 22,500 cells were added to each well and incubated at 37 C in 5% C02 for 24 hours or 6 hours. At the end of the incubation time, cells were treated with the Nano-Glo® HiBiT Lytic Detection System following the manufacturer's instructions. Luminescence was measured with a PHERAstar FSX plate reader (BMG Labtech, Cary, NC). The Levenberg-Marquardt algorithm was used to fit a Hill equation to dose-response data to calculate DC50 values (see Table 6).

Row | SMILES | DC50
1 | O=C1CCC(Nc2ccc(C3CCN(CC4CCN(C(=O)[C@H]5CCC[C@@H](Nc6ncc(Cl)c(-c7cccc(-c8ccccc8)c7)n6)C5)CC4)CC3)cc2)C(=O)N1 (relative stereo) [Compound 65, cis-3-((4-(1-((1-(3-((4-([1,1′-biphenyl]-3-yl)-5-chloropyrimidin-2-yl)amino)cyclohexane-1-carbonyl)piperidin-4-yl)methyl)piperidin-4-yl)phenyl)amino)piperidine-2,6-dione] | < 500 nM
2 | O=C1CCC(N2Cc3cc(OC4CCN(CC5CCN(C(=O)[C@H]6CCC[C@@H](Nc7ncc(Cl)c(-c8cccc(-c9ccccc9)c8)n7)C6)CC5)CC4)ccc3C2=O)C(=O)N1 (relative stereo) [Compound 76, cis-3-(5-((1-((1-(3-((4-([1,1′-biphenyl]-3-yl)-5-chloropyrimidin-2-yl)amino)cyclohexane-1-carbonyl)piperidin-4-yl)methyl)piperidin-4-yl)oxy)-1-oxoisoindolin-2-yl)piperidine-2,6-dione] | < 500 nM
3 | O=C1CCC(N2Cc3cc(OC4CCN(CCC5CCN(C(=O)[C@H]6CCC[C@@H](Nc7ncc(Cl)c(-c8cccc(-c9ccccc9)c8)n7)C6)CC5)CC4)ccc3C2=O)C(=O)N1 (relative stereo) [Compound 79, cis-3-(5-((1-(2-(1-(3-((4-([1,1′-biphenyl]-3-yl)-5-chloropyrimidin-2-yl)amino)cyclohexane-1-carbonyl)piperidin-4-yl)ethyl)piperidin-4-yl)oxy)-1-oxoisoindolin-2-yl)piperidine-2,6-dione] | < 500 nM
4 | O=C1CCC(N2Cc3cc(OC4CCN(CCN5CCN(C(=O)[C@H]6CCC[C@@H](Nc7ncc(Cl)c(-c8cccc(-c9ccccc9)c8)n7)C6)CC5)CC4)ccc3C2=O)C(=O)N1 (relative stereo) [Compound 80, cis-3-(5-((1-(2-(4-(3-((4-([1,1′-biphenyl]-3-yl)-5-chloropyrimidin-2-yl)amino)cyclohexane-1-carbonyl)piperazin-1-yl)ethyl)piperidin-4-yl)oxy)-1-oxoisoindolin-2-yl)piperidine-2,6-dione] | < 500 nM
5 | O=C1CCC(N2Cc3cc(OC4CCN(C(=O)CC5CCN(C(=O)[C@H]6CCC[C@@H](Nc7ncc(Cl)c(-c8cccc(-c9ccccc9)c8)n7)C6)CC5)CC4)ccc3C2=O)C(=O)N1 (relative stereo) [Compound 81, cis-3-(5-((1-(2-(1-(3-((4-([1,1′-biphenyl]-3-yl)-5-chloropyrimidin-2-yl)amino)cyclohexane-1-carbonyl)piperidin-4-yl)acetyl)piperidin-4-yl)oxy)-1-oxoisoindolin-2-yl)piperidine-2,6-dione] | < 500 nM
6 | O=C1CCC(N2Cc3cc(OC4CCN(C(=O)CN5CCN(C(=O)[C@H]6CCC[C@@H](Nc7ncc(Cl)c(-c8cccc(-c9ccccc9)c8)n7)C6)CC5)CC4)ccc3C2=O)C(=O)N1 (relative stereo) [Compound 82, cis-3-(5-((1-(2-(4-(3-((4-([1,1′-biphenyl]-3-yl)-5-chloropyrimidin-2-yl)amino)cyclohexane-1-carbonyl)piperazin-1-yl)acetyl)piperidin-4-yl)oxy)-1-oxoisoindolin-2-yl)piperidine-2,6-dione] | < 500 nM
7 | Cn1c(=O)n(C2CCC(=O)NC2=O)c2ccc(C3CCN(CCC4CCN(C(=O)[C@H]5CCC[C@@H](Nc6ncc(Cl)c(-c7cccc(-c8ccc(F)cc8)c7)n6)C5)CC4)CC3)cc21 (relative stereo) [Compound 279, cis-3-(5-(1-(2-(1-(3-((5-chloro-4-(4′-fluoro-[1,1′-biphenyl]-3-yl)pyrimidin-2-yl)amino)cyclohexane-1-carbonyl)piperidin-4-yl)ethyl)piperidin-4-yl)-3-methyl-2-oxo-2,3-dihydro-1H-benzo[d]imidazol-1-yl)piperidine-2,6-dione] | < 500 nM
8 | O=C1CCC(Nc2ccc(C3CCN(CC(=O)N4CCC5(C4)CN(C(=O)[C@H]4CCC[C@@H](Nc6ncc(Cl)c(-c7cccc(-c8ccc(F)cc8)c7)n6)C4)C5)CC3)c(F)c2)C(=O)N1 (relative stereo) [Compound 284, cis-3-((4-(1-(2-(2-(3-((5-chloro-4-(4′-fluoro-[1,1′-biphenyl]-3-yl)pyrimidin-2-yl)amino)cyclohexane-1-carbonyl)-2,6-diazaspiro[3.4]octan-6-yl)-2-oxoethyl)piperidin-4-yl)-3-fluorophenyl)amino)piperidine-2,6-dione] | < 500 nM
9 | Cn1c(=O)n(C2CCC(=O)NC2=O)c2ccc(C3CCN(CCC4CCN(C(=O)[C@H]5CCC[C@@H](Nc6ncc(F)c(-c7cccc(-n8ccccc8=O)c7)n6)C5)CC4)CC3)cc21 (relative stereo) [Compound 291, cis-3-(5-(1-(2-(1-(3-((5-fluoro-4-(3-(2-oxopyridin-1(2H)-yl)phenyl)pyrimidin-2-yl)amino)cyclohexane-1-carbonyl)piperidin-4-yl)ethyl)piperidin-4-yl)-3-methyl-2-oxo-2,3-dihydro-1H-benzo[d]imidazol-1-yl)piperidine-2,6-dione] | < 500 nM
10 | O=C1CCC(Oc2ccc(N3CCC(O)(CC(=O)N4CCN(C(=O)[C@H]5CCC[C@@H](Nc6ncc(Cl)c(-c7cccc(-c8ccc(F)cc8)c7)n6)C5)CC4)CC3)c(F)c2)C(=O)N1 (relative stereo) [Compound 292, cis-3-(4-(4-(2-(4-(3-((5-chloro-4-(4′-fluoro-[1,1′-biphenyl]-3-yl)pyrimidin-2-yl)amino)cyclohexane-1-carbonyl)piperazin-1-yl)-2-oxoethyl)-4-hydroxypiperidin-1-yl)-3-fluorophenoxy)piperidine-2,6-dione] | > 5000 nM
11 | O=C1CCC(Nc2ccc(N3CCC(N4CCC(CNC(=O)[C@H]5CCC[C@@H](Nc6ncc(F)c(-c7cccc(-n8ccccc8=O)c7)n6)C5)CC4)CC3)cc2)C(=O)N1 (relative stereo) [Compound 297, cis-N-((1′-(4-((2,6-dioxopiperidin-3-yl)amino)phenyl)-[1,4′-bipiperidin]-4-yl)methyl)-3-((5-fluoro-4-(3-(2-oxopyridin-1(2H)-yl)phenyl)pyrimidin-2-yl)amino)cyclohexane-1-carboxamide] | < 500 nM
12 | Cn1nc(C2CCC(=O)NC2=O)c2ccc(C3CCN(CCC4CCN(C(=O)[C@H]5CCC[C@@H](Nc6ncc(F)c(-c7cccc(-n8ccccc8=O)c7)n6)C5)CC4)CC3)cc21 (relative stereo) [Compound 298, 3-(6-(1-(2-(1-(cis-3-((5-fluoro-4-(3-(2-oxopyridin-1(2H)-yl)phenyl)pyrimidin-2-yl)amino)cyclohexane-1-carbonyl)piperidin-4-yl)ethyl)piperidin-4-yl)-1-methyl-1H-indazol-3-yl)piperidine-2,6-dione] | < 500 nM
13 | O=C1CCC(n2c(=O)oc3cc(N4CCC(N5CCC(CNC(=O)[C@H]6CCC[C@@H](Nc7ncc(F)c(-c8cccc(-n9ccccc9=O)c8)n7)C6)CC5)CC4)ccc32)C(=O)N1 (relative stereo) [Compound 299, cis-N-((1′-(3-(2,6-dioxopiperidin-3-yl)-2-oxo-2,3-dihydrobenzo[d]oxazol-6-yl)-[1,4′-bipiperidin]-4-yl)methyl)-3-((5-fluoro-4-(3-(2-oxopyridin-1(2H)-yl)phenyl)pyrimidin-2-yl)amino)cyclohexane-1-carboxamide] | < 500 nM
14 | O=C1CCC(n2c(=O)oc3cc(C4CCN(C[C@H]5CC[C@H](NC(=O)[C@H]6CCC[C@@H](Nc7ncc(F)c(-c8cccc(-n9ccccc9=O)c8)n7)C6)CC5)CC4)ccc32)C(=O)N1 (relative stereo) [Compound 306, cis-trans-N-(4-((4-(3-(2,6-dioxopiperidin-3-yl)-2-oxo-2,3-dihydrobenzo[d]oxazol-6-yl)piperidin-1-yl)methyl)cyclohexyl)-3-((5-fluoro-4-(3-(2-oxopyridin-1(2H)-yl)phenyl)pyrimidin-2-yl)amino)cyclohexane-1-carboxamide] | < 500 nM
15 | Cn1nc(C2CCC(=O)NC2=O)c2ccc(C3CCN(C[C@H]4CC[C@H](NC(=O)[C@H]5CCC[C@@H](Nc6ncc(F)c(-c7cccc(-n8ccccc8=O)c7)n6)C5)CC4)CC3)cc21 (relative stereo) [Compound 307, cis-trans-N-(4-((4-(3-(2,6-dioxopiperidin-3-yl)-1-methyl-1H-indazol-6-yl)piperidin-1-yl)methyl)cyclohexyl)-3-((5-fluoro-4-(3-(2-oxopyridin-1(2H)-yl)phenyl)pyrimidin-2-yl)amino)cyclohexane-1-carboxamide] | 1000 to 5000 nM
